Data published in patent US20230312493A1, “DEUTERATED AND TRITIATED N-(4,5-DIMETHYLTHIAZOLO-2(3H)-YLIDEN)-2,2,3,3-TETRAMETHYLCYCLOPROPANE-1-CARBOXAMIDE DERIVATIVES AND THE USE THEREOF” (HELMHOLTZ-ZENTRUM DRESDEN-ROSSENDORF E.V., priority 2020, published 2023).
pIC50, pKd, pKi: −log10 of the molar value.

Legend:
[1] = target: T1, CBR2 (Homo sapiens, UniProt P34972); assay: homolog competition assay, homogenate of CHO cells stably transfected with human CBR2 receptor, radioligand [^18F]JHU94620-D8; format: binding; design: expressed in transfected cells; host or cells: CHO cells (stably transfected), used as homogenate
T1 sequence (P34972 whole entry): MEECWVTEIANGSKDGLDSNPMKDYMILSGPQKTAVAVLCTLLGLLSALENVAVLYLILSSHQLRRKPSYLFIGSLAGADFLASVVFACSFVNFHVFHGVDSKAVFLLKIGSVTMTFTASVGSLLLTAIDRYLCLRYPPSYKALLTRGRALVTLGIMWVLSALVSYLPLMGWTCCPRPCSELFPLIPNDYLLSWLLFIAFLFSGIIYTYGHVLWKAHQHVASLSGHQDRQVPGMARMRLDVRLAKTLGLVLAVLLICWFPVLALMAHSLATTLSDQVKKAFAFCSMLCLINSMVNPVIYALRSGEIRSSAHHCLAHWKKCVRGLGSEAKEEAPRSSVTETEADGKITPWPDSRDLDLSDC
Procedure: The equilibrium dissociation constant KD was determined by means of a homolog competition assay. For that, a constant amount of binding protein (homogenate of CHO cells that were stably transfected with human CBR2 receptor; 2 Mio. cells/mL of the batch) was incubated with a constant amount of [^18F]JHU94620-D8 (0.101 nM in the batch) and an increasing concentration of JHU94620 (0.01 nM-10 µM in the batch) for 60 minutes at room temperature in binding buffer (50 mM TRIS-HCl, pH 7.4, with 5 mM of MgCl2, 1 mM EDTA, 1% BSA). Separation of receptor-bound and free radioligand was carried out by filtration over GF/B glass fiber filter incubated with 0.3% of polyethylene imine. Quantification of receptor-bound radioligand was carried out by measuring the filter-bound radioactivity in a gamma counter. Determination of the unspecific bonding of [^18F]JHU94620-D8 was carried out by co-incubation with CP55940 (10 µM in the batch), determination of the adsorption of the radioligand at the glass fiber filter was carried out by incubation without binding protein. […] CP55940 is a synthetic cannabinoid.

[2] = in vivo metabolite study (metabolic stability, radio-HPLC of brain homogenate and plasma); design: species or system female CD-1 mice; conditions: for metabolic stability (comparison in words): in vivo, compared with another radiotracer; for percentage of intact radiotracer in the brain / percentage of intact radiotracer in the plasma: female CD-1 mice, 30 min after the injection, radio-HPLC
Procedure: The metabolic stability of [^18F]JHU94620-D4 was determined in accordance with the method described by Moldovan et al., J. Med. Chem. 2016, 59, 7840-7855. In the same way, the metabolic stability of JHU94620 and [^18F]JHU94620 was determined. The radio-HPLC chromatograms shown in FIGS. 3 and 4 were determined using a ReproSil-Pur C18 AQ column (250×4.6 mm, […]; eluting agent: 10-90-10% MeCN/20 mM NH4OAc; flow: 1 ml/min). JHU94620 has the following formula: […]
It is seen in FIG. 4 that in the in vivo metabolite study in female CD-1 mice the percentage of intact radiotracer [^18F]JHU94620-D4 in the brain was ~80% (radio-HPLC, extraction yield >97%) and in the plasma was ~15% (radio-HPLC, extraction yield >95%) 30 min after the injection.
In the in vivo metabolite study in female CD-1 mice in case of JHU94620 the percentage of intact radiotracer in the brain was 36% (radio-HPLC, n=3, extraction yield 93%) and in the plasma was 7% (radio-HPLC, n=3, extraction yield 94%) of the total activity 30 min after the injection.

[3] = background statement on prior-art compound; cited from earlier work
[4] = target: T1, CBR2; assay: CBR2 equilibrium dissociation constant Ki via Cheng-Prusoff equation; format: binding; conditions: n = 3; read-out: CBR2 affinity Ki
Procedure: Using the Cheng-Prusoff equation
the CBR2 equilibrium dissociation constant Ki of JHU94620 was determined. Here, L designates the concentration of the free ligand. […] Replacing hydrogen atoms by […] shall not have any influence on the Ki value. This also applies to the replacement of hydrogen atoms by tritium ions.

Row | Structure (SMILES) | pKd ([1]; calculated as KD = IC50 - radioligand (simplified Cheng-Prusoff), read-out: equilibrium dissociation constant KD) | metabolic stability (comparison in words) [2] | metabolic stability (prior art statement) [3] | percentage of intact radiotracer in the brain [2] | percentage of intact radiotracer in the plasma [2] | pIC50 ([1]; competition of JHU94620 (0.01 nM-10 µM) with 0.101 nM [^18F]JHU94620-D8, 60 minutes, room temperature) | pKi [4]
1 | [2H]C([2H])([18F])C([2H])([2H])C([2H])([2H])C([2H])([2H])n1c(C)c(C)s/c1=N\C(=O)C1C(C)(C)C1(C)C [[^18F]JHU94620-D8, N-(3-(4-([^18F]fluoro)butyl-1,1,2,2,3,3,4,4-ds)-4,5-dimethylthiazole-2(3H)-ylidene)-2,2,3,3-tetramethylcyclopropane-1-carboxamide] | 8.57 | highly similar to that of [^18F]JHU94620-D4 |  |  |  |  | 
2 | Cc1s/c(=N\C(=O)C2C(C)(C)C2(C)C)n(CCCC[18F])c1C [[^18F]JHU94620, N-(3-(4-([^18F]fluoro)butyl)-4,5-dimethylthiazole-2(3H)-ylidene)-2,2,3,3-tetramethylcyclopropane-1-carboxamide] |  |  | low metabolic stability | 38% |  |  | 
3 | [2H]C([2H])([18F])CCC([2H])([2H])n1c(C)c(C)s/c1=N\C(=O)C1C(C)(C)C1(C)C [[^18F]JHU94620-D4, N-(3-(4-([^18F]fluoro)butyl-1,1,4,4-d4)-4,5-dimethylthiazole-2(3H)-ylidene)-2,2,3,3-tetramethylcyclopropane-1-carboxamide] |  | substantially higher metabolic stability than [^18F]JHU94620 |  | ~ 80% | ~ 15% |  | 
4 | Cc1s/c(=N\C(=O)C2C(C)(C)C2(C)C)n(CCCCF)c1C [JHU94620] |  |  |  | 36% | 7% | 8.55 | 9.40
